Test system: PPO dG210 mutant Tall Waterhemp (Amaranthus tuberculatus)
Format: in vivo
Details: relative to Flumioxazin, Sulfentrazone, and Pyroxasulfone

C#CCN1C(=O)C(F)(F)Oc2cc(F)c(-c3c(F)c(F)c(F)c(F)c3F)cc21 [Compound 2, 2,2,7-trifluoro-6-(perfluorophenyl)-4-(prop-2-yn-1-yl)-2H-benzo[b][1,4]oxazin-3(4H)-one]
resistant weed control, comparison in words: more effective at resistant weed control than the other commercially available herbicides

Reference: patent US12637438B2, “Protoporphyrinogen oxidase inhibitors” (Enko Chem, Inc., priority 2021, dated 2026)
